Laboratory results reported in PubChem BioAssay (NCI).
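How tested: cells in 96-well plates exposed to compound for 48 hours at five concentrations. GI50 = concentration required for 50% inhibition of growth. The concentration for full growth arrest is given as TGI.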

Key:
Assay in all cases: NCI-60 cell line screen, 48 h
[1] = tested on: 786-0 renal
[2] = tested on: A498 renal
[3] = tested on: A549 NSCLC
[4] = tested on: ACHN renal
[5] = tested on: BT-549 breast
[6] = tested on: CAKI-1 renal
[7] = tested on: CCRF-CEM leukemia
[8] = tested on: COLO 205 colon
[9] = tested on: DU-145 prostate
[10] = tested on: HCC-2998 colon
[11] = tested on: HCT-116 colon
[12] = tested on: HCT-15 colon
[13] = tested on: HOP-62 NSCLC
[14] = tested on: HOP-92 NSCLC
[15] = tested on: HS 578T breast
[16] = tested on: HT29 colon
[17] = tested on: IGROV1 ovarian
[18] = tested on: K-562 leukemia
[19] = tested on: KM12 colon
[20] = tested on: LOX IMVI melanoma
[21] = tested on: M14 melanoma
[22] = tested on: MALME-3M melanoma
[23] = tested on: MCF7 breast
[24] = tested on: MDA-MB-231 breast
[25] = tested on: MDA-MB-435
[26] = tested on: MOLT-4 leukemia
[27] = tested on: NCI-H226 lung
[28] = tested on: NCI-H23 lung
[29] = tested on: NCI-H460 lung
[30] = tested on: NCI-H522 lung
[31] = tested on: NCI/ADR-RES ovarian
[32] = tested on: OVCAR-3 ovarian
[33] = tested on: OVCAR-4 ovarian
[34] = tested on: OVCAR-5 ovarian
[35] = tested on: OVCAR-8 ovarian
[36] = tested on: PC-3 prostate
[37] = tested on: RPMI-8226 leukemia
[38] = tested on: RXF 393 renal
[39] = tested on: SF-268 CNS
[40] = tested on: SF-295 CNS
[41] = tested on: SF-539 CNS
[42] = tested on: SK-MEL-2 melanoma
[43] = tested on: SK-MEL-28 melanoma
[44] = tested on: SK-MEL-5 melanoma
[45] = tested on: SK-OV-3 ovarian
[46] = tested on: SN12C renal
[47] = tested on: SNB-19 CNS
[48] = tested on: SNB-75 CNS
[49] = tested on: SR leukemia
[50] = tested on: SW-620 colon
[51] = tested on: T-47D breast
[52] = tested on: TK-10 renal
[53] = tested on: U251 CNS
[54] = tested on: UACC-257 melanoma
[55] = tested on: UACC-62 melanoma
[56] = tested on: UO-31 renal
[57] = tested on: EKVX NSCLC

Question: What does the source list for `COc1ccc(/C=C/C(=O)c2cccc(B(O)O)c2)cc1O`?
Answer: GI50 [1]: 4.33 µM; TGI [1]: 40.8 µM; GI50 [2]: 2.31 µM; TGI [2]: 11.2 µM; GI50 [3]: 3.35 µM; TGI [3]: 46.9 µM; GI50 [4]: 4.59 µM; TGI [4]: 71.1 µM; GI50 [5]: 2.82 µM; TGI [5]: 14.2 µM; GI50 [6]: 3.43 µM; TGI [6]: 19.3 µM; GI50 [7]: 3.13 µM; TGI [7]: 14.1 µM; GI50 [8]: 13 µM; TGI [8]: 27.5 µM; GI50 [9]: 2.8 µM; TGI [9]: 7.88 µM; GI50 [10]: 2.67 µM; TGI [10]: 7.47 µM; GI50 [11]: 2.55 µM; TGI [11]: 10.7 µM; GI50 [12]: 2.44 µM; TGI [12]: 12.3 µM; GI50 [13]: 4.24 µM; TGI [13]: 18.6 µM; GI50 [14]: 1.42 µM; TGI [14]: 29.7 µM; GI50 [15]: 2.28 µM; TGI [15]: 8.87 µM; GI50 [16]: 9.77 µM; TGI [16]: 44.4 µM; GI50 [17]: 5.39 µM; TGI [17]: 33 µM; GI50 [18]: 1.33 µM; TGI [18]: > 100 µM; GI50 [19]: 2.51 µM; TGI [19]: 6.47 µM; GI50 [20]: 2.07 µM; TGI [20]: 5.37 µM; GI50 [21]: 4.23 µM; TGI [21]: 18.6 µM; GI50 [22]: 15.3 µM; TGI [22]: 32.1 µM; GI50 [23]: 2.21 µM; TGI [23]: 12.4 µM; GI50 [24]: 3.44 µM; TGI [24]: > 100 µM; GI50 [25]: 1.89 µM; TGI [25]: 4.57 µM; GI50 [26]: 4.04 µM; TGI [26]: > 100 µM; GI50 [27]: 4.79 µM; TGI [27]: > 100 µM; GI50 [28]: 4.67 µM; TGI [28]: 22.7 µM; GI50 [29]: 3.11 µM; TGI [29]: 11.5 µM; GI50 [30]: 3.33 µM; TGI [30]: 13.5 µM; GI50 [31]: 3.09 µM; TGI [31]: 28.6 µM; GI50 [32]: 3.44 µM; TGI [32]: 10.9 µM; GI50 [33]: 7.91 µM; TGI [33]: 21 µM; GI50 [34]: 9.25 µM; TGI [34]: 31.6 µM; GI50 [35]: 3.82 µM; TGI [35]: > 100 µM; GI50 [36]: 6.18 µM; TGI [36]: 32.9 µM; GI50 [37]: 3.39 µM; TGI [37]: 33.3 µM; GI50 [38]: 2.8 µM; TGI [38]: 11.4 µM; GI50 [39]: 3.46 µM; TGI [39]: 19.9 µM; GI50 [40]: 3.17 µM; TGI [40]: 13.2 µM; GI50 [41]: 2.4 µM; TGI [41]: 8.46 µM; GI50 [42]: 15.6 µM; TGI [42]: 58.9 µM; GI50 [43]: 6.72 µM; TGI [43]: > 100 µM; GI50 [44]: 3.76 µM; TGI [44]: 14.9 µM; GI50 [45]: 6.14 µM; TGI [45]: > 100 µM; GI50 [46]: 3.26 µM; TGI [46]: 25.7 µM; GI50 [47]: 5.1 µM; TGI [47]: 27.3 µM; GI50 [48]: 2.74 µM; TGI [48]: 12.2 µM; GI50 [49]: 2.56 µM; TGI [49]: 30.3 µM; GI50 [50]: 2.79 µM; TGI [50]: 11.5 µM; GI50 [51]: 3.01 µM; TGI [51]: 16 µM; GI50 [52]: 4.4 µM; TGI [52]: 24.1 µM; GI50 [53]: 3.41 µM; TGI [53]: 13.2 µM; GI50 [54]: 10.6 µM; TGI [54]: 30.9 µM; GI50 [55]: 3.83 µM; TGI [55]: 17.3 µM; GI50 [56]: 3.63 µM; TGI [56]: 17.4 µM

Question: With `Oc1ccc(N=Cc2ccc(C=Nc3ccc(O)cc3)cc2)cc1` as the compound, how does the TGI [1] read?
Answer: 31.4 µM

Question: And the TGI [2]?
Answer: 94.2 µM

Question: What about the TGI [3] of the same compound?
Answer: 38.4 µM

Question: And the TGI [4]?
Answer: 26 µM

Question: And the TGI [5]?
Answer: 33.8 µM

Question: What about the TGI [6] of the same compound?
Answer: 35.1 µM

Question: And the TGI [7]?
Answer: 30.7 µM

Question: And the TGI [8]?
Answer: 39.2 µM

Question: And the TGI [9]?
Answer: 32.4 µM

Question: What about the TGI [57] of the same compound?
Answer: 83.6 µM

Question: And the TGI [11]?
Answer: 36.8 µM

Question: What about the TGI [12] of the same compound?
Answer: 29.1 µM

Question: And the TGI [13]?
Answer: 37.1 µM

Question: And the TGI [14]?
Answer: 62.7 µM

Question: What about the TGI [15] of the same compound?
Answer: 60.1 µM

Question: What about the TGI [16] of the same compound?
Answer: 89.4 µM

Question: And the TGI [17]?
Answer: 39 µM

Question: What about the TGI [18] of the same compound?
Answer: 40.4 µM

Question: What about the TGI [19] of the same compound?
Answer: 33.3 µM

Question: And the TGI [20]?
Answer: 41.4 µM

Question: What about the TGI [21] of the same compound?
Answer: 34.5 µM

Question: What about the TGI [22] of the same compound?
Answer: 34.4 µM

Question: And the TGI [23]?
Answer: > 100 µM

Question: And the TGI [24]?
Answer: 27.7 µM

Question: What about the TGI [25] of the same compound?
Answer: 32.7 µM

Question: What about the TGI [26] of the same compound?
Answer: 20 µM

Question: What about the TGI [27] of the same compound?
Answer: 29.5 µM

Question: And the TGI [28]?
Answer: 34.8 µM

Question: What about the TGI [29] of the same compound?
Answer: 72.7 µM

Question: What about the TGI [30] of the same compound?
Answer: 59.9 µM

Question: What about the TGI [31] of the same compound?
Answer: 34.2 µM

Question: What about the TGI [32] of the same compound?
Answer: 32.6 µM

Question: What about the TGI [33] of the same compound?
Answer: 29.6 µM

Question: And the TGI [34]?
Answer: 38.7 µM

Question: And the TGI [35]?
Answer: 29.3 µM

Question: What about the TGI [36] of the same compound?
Answer: 33 µM

Question: What about the TGI [37] of the same compound?
Answer: 81.6 µM

Question: What about the TGI [38] of the same compound?
Answer: 34.9 µM

Question: And the TGI [39]?
Answer: 30.8 µM

Question: What about the TGI [40] of the same compound?
Answer: 32.3 µM

Question: And the TGI [41]?
Answer: 28.6 µM

Question: What about the TGI [42] of the same compound?
Answer: 49.9 µM

Question: What about the TGI [43] of the same compound?
Answer: 37.3 µM

Question: And the TGI [44]?
Answer: 29.8 µM

Question: What about the TGI [45] of the same compound?
Answer: 32.4 µM

Question: And the TGI [46]?
Answer: 28.5 µM

Question: What about the TGI [47] of the same compound?
Answer: 31.6 µM

Question: And the TGI [48]?
Answer: 41.5 µM

Question: What about the TGI [49] of the same compound?
Answer: 25.9 µM

Question: And the TGI [50]?
Answer: 45.8 µM

Question: What about the TGI [51] of the same compound?
Answer: > 100 µM

Question: What about the TGI [52] of the same compound?
Answer: 34 µM

Question: What about the TGI [53] of the same compound?
Answer: 27.6 µM

Question: And the TGI [54]?
Answer: 32.4 µM

Question: And the TGI [55]?
Answer: 25.5 µM

Question: And the TGI [56]?
Answer: 34 µM
